≈ marks a conversion by molar mass, not a printed value. Entries after “also recorded” stand apart in the source; their conditions may differ. Read-outs that look alike come from different tables or passages of the source.
Legend:
BVDV = test: microbe, parasite or virus in culture; assay type: cell-based, bovine viral diarrhoea virus; settings: read-out: EC50 BVDV
WNV [1] = test: Yield reduction assay; assay type: cell-based, west nile virus; settings: BHK-21, m.o.i. 0.1, 72 hrs, 15μM for 4, 20 μM for 5
[2] = tested on: West Nile virus, Dengue virus and Yellow Fever virus; assay type: cell-based, Flaviviridae; settings: read-out: EC50 range against West Nile virus, Dengue virus and Yellow Fever virus
HIV-1 IIIB = test: microbe, parasite or virus in culture; assay type: cell-based, Human Immunodeficiency Virus type-1
[3] = tested on: M. tuberculosis H37Ra ATCC 25177; test: microbe, parasite or virus in culture; assay type: cell-based, Mycobacterium tuberculosis
HSV-1 = test: microbe, parasite or virus in culture; assay type: cell-based, human herpes 1
DENV-2 = test: microbe, parasite or virus in culture; assay type: cell-based, dengue virus
WNV [4] = test: microbe, parasite or virus in culture; assay type: cell-based, west nile virus
Reo-1 = test: microbe, parasite or virus in culture; assay type: cell-based, reovirus type-1
WNV [5] = test: Adsorption assay; assay type: cell-based, west nile virus; settings: BHK cells, m.o.i. 1, 0-60 min at 4°C; 15μM for 4, 20μM for 5
WNV [6] = test: Virucidal activity assay; assay type: cell-based, west nile virus; settings: 45 min at 37°C, 6 and 20μM for 4, 20 and 50μM for 5
WNV [7] = test: microbe, parasite or virus in culture; assay type: cell-based, west nile virus; remark: listed apart in the source
[8] = tested on: human lung adenocarcinoma epithelial cell line A549; settings: previous studies; cited from earlier work
YFV = test: microbe, parasite or virus in culture; assay type: cell-based, yellow fever virus
WNV [9] = assay type: cell-based, west nile virus; settings: for Cell viability, addition at 1, 2, 4 or 8 hours post-infection: 15 μM for 4, 20 μM for 5
in vitro [10] = settings: cattle (Bos taurus)
in vitro [11] = settings: hamster (Mesocricetus auratus)
in vitro [12] = settings: African green monkey (Cercopithecus aethiops)
M. tuberculosis = settings: against M. tuberculosis; cited from earlier work
in vitro [13] = settings: human
[14] = Bovine viral diarrhea virus isolates and strains, MDBK, in Bos taurus
[15] = Reovirus sp., BHK-21, read-out: EC50 Reo-1
[16] = Yellow fever virus, BHK-21, read-out: EC50 YFV
[17] = Mycobacterium tuberculosis, 672 h
[18] = Human alphaherpesvirus 1, Vero 76, read-out: EC50 HSV-1
[19] = Human immunodeficiency virus 1, IIIB, MT4, read-out: EC50 HIV-1IIIB

## CC1(C)O[C@H]1[C@H]1C[C@@H]([C@@H]2CC[C@]3(C)C4=CC[C@H]5C(C)(C)C(=O)CC[C@]5(C)[C@H]4CC[C@@]23C)[C@H](O)O1 [Compound 5, melianone]
BVDV
  EC50: > 16 µM
WNV [1]
  Reduction of WNV titre (yield reduction): a reduction of virus titre was observed
WNV [1]; listed as melianone
  Reduction of WNV titre (yield reduction): Reduction of WNV titre
[2]
  EC50: 3 to 11 µM
HIV-1 IIIB; read-out: EC50 HIV-1IIIB
  EC50: > 100 µM
[3]
  MIC: >136 µM
HSV-1; read-out: EC50 HSV-1
  EC50: 20 µM
DENV-2; read-out: EC50 DENV-2
  EC50: 12 µM
WNV [4]; read-out: EC50 WNV
  EC50: 11 µM
Reo-1; read-out: EC50 Reo-1
  EC50: > 50 µM
WNV [5]
  WNV adsorption (virus titre): doesn’t reduce the virus titre
BHK-21 cells
  CC50: 50 µM
  Cytopathic effects on BHK-21 monolayers: did not show significant cytopathic effects
WNV [6]
  Virucidal activity (WNV infectivity): failed to affect the WNV infectivity
WNV [6]; listed as melianone
  Virucidal activity (WNV infectivity): doesn’t affect the WNV infectivity
WNV [7]; read-out: EC50 WNV 2hrs p.i.
  EC50: > 50 µM
WNV [7]; read-out: EC50 WNV d. i.
  EC50: 6.1 µM
[8]
  Cytotoxicity towards A549: exhibit cytotoxicity
YFV; read-out: EC50 YFV
  EC50: 3 µM
WNV [9]
  Cell viability, addition during the infection: increases the cell viability
  Cell viability, pretreatment: does not increase the cells viability
  Cell viability, addition at 1, 2, 4 or 8 hours post-infection: not more able to protect BHK-21 cells; also recorded: not more able to significantly increase the cell viability
Vero-76 cells
  CC50: 51 µM
MT-4 cells
  CC50: > 100 µM
MDBK cells
  CC50: 16 µM

## C[C@@]1(O)[C@H](O)[C@@H](CO)O[C@H]1n1cnc2c(=O)[nH]c(N)nc21 [2’-C-methyl-guanosine, reference compound]
In vitro [10]
  CC50: > 100 µM
BVDV; [14]
  EC50: 2 µM
DENV-2; Dengue virus, DENV2, BHK-21, read-out: EC50 DENV-2
  EC50: 1.4 µM
WNV [4]; West Nile virus, BHK-21, read-out: EC50 WNV
  EC50: 1 µM
Reo-1; [15]
  EC50: 1 µM
BHK-21 cells
  Cytopathic effects on BHK-21 monolayers: did not show significant cytopathic effects
WNV [7]; West Nile virus, BHK-21, 2 h, read-out: EC50 WNV 2hrs p.i.
  EC50: 1 µM
WNV [7]; West Nile virus, BHK-21, read-out: EC50 WNV d. i.
  EC50: 1 µM
YFV; [16]
  EC50: 1.4 µM
WNV [9]
  Cell viability, addition during the infection: increases the cell viability
In vitro [11]
  CC50: 80 µM

## NNC(=O)c1ccncc1 [Isoniazid, reference compound]
[3]; [17]
  MIC: 0.45 µM (≈ 0.0617 µg/mL)

## C/C=C(\C)C(=O)O[C@@H]1CC[C@]2(C)[C@H]3CC[C@@]4(C)[C@@H]([C@@H]5C[C@H]([C@@H]6OC6(C)C)O[C@H]5O)CC[C@]4(C)C3=CC[C@H]2C1(C)C [Compound 4, 3-α-tigloyl-melianol]
Vero cells
  Cytotoxicity against Vero cells: > 500 µM
BVDV
  EC50: > 37 µM
WNV [1]
  Reduction of WNV titre (yield reduction): a reduction of virus titre was observed
[2]
  EC50: 3 to 11 µM
HIV-1 IIIB; read-out: EC50 HIV-1IIIB
  EC50: > 27 µM
[3]
  MIC: 29 µM (≈ 16.1 µg/mL)
HSV-1; read-out: EC50 HSV-1
  EC50: > 100 µM
DENV-2; read-out: EC50 DENV-2
  EC50: 3 µM
WNV [4]; read-out: EC50 WNV
  EC50: 3 µM
Reo-1; read-out: EC50 Reo-1
  EC50: > 20 µM
WNV [5]
  WNV adsorption (virus titre): doesn’t reduce the virus titre
BHK-21 cells
  CC50: 20 µM
  Cytopathic effects on BHK-21 monolayers: did not show significant cytopathic effects
WNV [6]
  Virucidal activity (WNV infectivity): failed to affect the WNV infectivity
WNV [6]; listed as 3-tigloyl-melianol
  Virucidal activity (WNV infectivity): doesn’t affect the WNV infectivity
WNV [7]; read-out: EC50 WNV 2hrs p.i.
  EC50: > 20 µM
WNV [7]; read-out: EC50 WNV d. i.
  EC50: 3.5 µM
[8]
  Cytotoxicity towards A549: exhibit cytotoxicity
YFV; read-out: EC50 YFV
  EC50: 7 µM
WNV [9]
  Cell viability, addition during the infection: increases the cell viability
  Cell viability, pretreatment: does not increase the cells viability
  Cell viability, addition at 1, 2, 4 or 8 hours post-infection: not more able to protect BHK-21 cells; also recorded: not more able to significantly increase the cell viability
Vero-76 cells
  CC50: 100 µM
MT-4 cells
  CC50: 27 µM
MDBK cells
  CC50: 37 µM

## Nc1nc2c(ncn2COCCO)c(=O)[nH]1 [Acycloguanosine, reference compound]
In vitro [12]
  CC50: > 100 µM
HSV-1; [18]
  EC50: 3 µM

## 21-β-acetoxy-melianone [Compound 3]
BVDV
  EC50: > 22 µM
HIV-1 IIIB; read-out: EC50 HIV-1IIIB
  EC50: > 23 µM
HSV-1; read-out: EC50 HSV-1
  EC50: > 36 µM
Reo-1; read-out: EC50 Reo-1
  EC50: > 10 µM
BHK-21 cells
  CC50: 10 µM
[8]
  Cytotoxicity towards A549: exhibit cytotoxicity
YFV; read-out: EC50 YFV
  EC50: > 10 µM
M. tuberculosis
  MIC: 16 µg/mL
Vero-76 cells
  CC50: 36 µM
MT-4 cells
  CC50: 23 µM
MDBK cells
  CC50: 22 µM

## O=C1Nc2ccc(Cl)cc2[C@@](C#CC2CC2)(C(F)(F)F)O1 [Efavirenz, reference compound]
HIV-1 IIIB; [19]
  EC50: 0.002 µM
In vitro [13]
  CC50: 40 µM

## COC(=O)[C@H](CCC=C(C)C)[C@@H]1[C@@H](O)C[C@]2(C)C3=CC[C@H]4C(C)(C)C(=O)CC[C@]4(C)[C@H]3CC[C@@]12C [Compound 2, methyl kulonate]
In vitro [10]
  CC50: 85 µM
BVDV; [14]
  EC50: > 85 µM
In vitro [12]
  CC50: 100 µM
HIV-1 IIIB; [19]
  EC50: > 35 µM
[3]; [17]
  MIC: 70 µM (≈ 33.9 µg/mL)
HSV-1; [18]
  EC50: > 100 µM
Reo-1; [15]
  EC50: > 100 µM
In vitro [13]
  CC50: 35 µM
[8]
  Cytotoxicity towards A549: exhibit cytotoxicity
YFV; [16]
  EC50: > 100 µM
In vitro [11]
  CC50: > 100 µM

Source: paper PMC4612778, “Limonoids from Melia azedarach Fruits as Inhibitors of Flaviviruses and Mycobacterium tubercolosis” (PLoS ONE, 2015)
